Measurements as given in patent publication US20170042171A1, “METHOD OF HANDLING MANGOES” (AGROFRESH, INC., priority 2011, published 2017).

Legend:
[1] = system: Mangos, Tommy Atkins variety; experiment: Pulp firmness of mangoes after 1-MCP at different concentrations with or without modified B bag, shelf-storage simulation (Example 2); format: in vivo, Mangifera indica; settings: for Pulp Firmness Difference from Control: 10° C. 15 hours, then ca. 22° C. three days
Procedure: (§1) Mangoes were evaluated for peel and pulp firmness, which are commercial measures of mango quality, using the following test procedure: • Determination of peel resistant to penetration (peel firmness) was accomplished using a Chatillon penetrometer (model DPPH-100) equipped with a chisel tip (6 mm wide). • Readings were obtained choosing randomly six fruit from each treatment. Each fruit was placed by the side on the penetrometer and then the tip of the instrument (chisel) was stalled into the fruit (about 8 mm deep). Six fruits per treatment were selected and readings were used for obtaining the average value of peel firmness for each treatment. • For testing flesh firmness, the other side of the fruit selected for testing peel resistant to penetration was used. The side not tested for peel resistance to penetration was peeled using a standard fruit peeler (which removed approximately a 2 mm thick peel tissue section). The total area peeled was approximately five square centimeters. • Immediately after removing the peel, each fruit was placed on the penetrometer and a new value of firmness was obtained using the chisel tip (to a depth of about 8 mm). Average values were calculated using six fruits per treatment.
This experiment utilized a modified version of the “B bag”. Rather than three layers, the bag consisted of two extruded layers in an 80/20 ratio with the following composition:
The film was perforated using a laser to give an average hole diameter of 104 micrometers with 52 perforations per bag in four rows. The OTR of the bag was ca. 370 cc/hour.
Mangos, Tommy Atkins variety imported from Guatemala, were kept at a temperature of 10° C. for three days. Portions of the mangos were subjected to one of eight different treatments; control (no 1-MCP or bag), 1-MCP only at 500 ppb, bag only, and bag plus one of five different 1-MCP application rates (50, 100, 500, 1000, and 2500 ppb). Each mango weighed ca. 1.1 Kg. For those mangos placed in bags, the bag contained four fruits for a total of 4.4 Kg of fruit per bag. The 1-MCP applications were made at a temperature of 10° C. for 15 hours. The control and each treated sample were then kept at room temperature (ca. 22° C.) for three days to simulate shelf-storage. Bags were kept closed during the shelf-storage simulation. Pulp firmness was then determined with the following results: […]

[2] = system: mangoes, Tommy Adkins cultivar; experiment: Pulp firmness of mangoes after MAP bag and/or 1-MCP exposure prior to transport simulation (Example 1); format: in vivo, Mangifera indica
Procedure: as §1
Fruit was harvested from a commercial mango farm (Mango Rica S.A.) located in Liberia, Guanacaste. Costa Rica on Apr. 7, 2011. […]

SMILES: CC1=CC1 [1-MCP, 1-methylcyclopropene]
- Pulp Firmness Difference from Control ([1]; Treatment 1: 1-MCP 500 ppb, Bag No): 0.43 Lb.
- Pulp Firmness Difference from Control ([1]; Treatment 3: 1-MCP 50 ppb, Bag Yes): 2.00 Lb.
- Pulp Firmness Difference from Control ([1]; Treatment 4: 1-MCP 100 ppb, Bag Yes): 2.70 Lb.
- Pulp Firmness Difference from Control ([1]; Treatment 5: 1-MCP 500 ppb, Bag Yes): 3.35 Lb.
- Pulp Firmness Difference from Control ([1]; Treatment 6: 1-MCP 1000 ppb, Bag Yes): 2.60 Lb.
- Pulp Firmness Difference from Control ([1]; Treatment 7: 1-MCP 2500 ppb, Bag Yes): 3.29 Lb.
- expected additive effect of the 1-MCP treatment and MAP bag alone on pulp firmness ([1]; sum of 1-MCP 500 ppb alone and bag alone): 1.96 lb
- Mango Pulp Firmness Difference (Reported as change from control*) ([2]; 6 mangoes per bag, 500 ppb 1-MCP for 12 hours prior to transport simulation (10-12° C., 18 days), then 18° C.): −0.03 Lbs.
- mango quality based on pulp firmness (in words) ([2]; MCP exposure prior to transport simulation): did not improve the quality of the mangoes
